Here are results for 33 compounds from patent US5260257A, “Thermal transfer sheet” (Dai Nippon Printing Co., Ltd., priority 1991, dated 1993).

A short description of data set [1]: ink stability test (precipitation of the dye in the ink observed with the naked eye). In kind it is physicochemical. The conditions noted are these: Table D1; room temperature (20°±3° C.), 48 hr. As to the method: The following ink composition for the formation of a dye supporting layer was prepared and heated to 70° C. to completely dissolve the ink.
Data set [2] is described as follows: light fastness test (Example D1 series). The class given is physicochemical. Particulars: Table D1; xenon, 50° C., 70 kJ/m^2. Here is the method: (§1) The light fastness test was conducted as follows.
(§2) Irradiation was conducted by means of a xenon fadeometer Ci35A (manufactured by Atlas) under conditions of a black panel temperature of 50° C. and an integrating irradiation energy of 70 kJ/m^2.
(§3) The percentage fading was determined from a density change around an initial density of 1.0 according to the following equation.
(§4) Percentage fading=(1-I/I0)×100 (%)
(§5) I=optical density after irradiation; and
(§6) I0 =optical density before irradiation.
(§7) .largecircle.: less than 20% in the percentage fading
Δ: 20% or more in the percentage fading

The subject of data set [3] is S. typhimurium TA100, TA98 and TA1538. In words: Ames test (mutagenic test). The class given is cell-based. The conditions noted are these: positive if reversion colonies twice or more vs control. Here is the method:
Ames test was conducted as a mutagenic test.
Strains used were S. typhimurium TA100, TA98 and TA1538.
When the increase in the reversion colony was twice or more as compared with that in the case of the control, the mutagenicity was judged as positive, while when the increase in the reversion colony was less than twice as compared with that in the case of the control, the mutagenicity was judged as negative.
For orientation: The Ames test uses bacterial strains that need an amino acid and regain growth without it when mutated back.

Data set [4] is described as follows: light fastness test (xenon fadeometer, percentage fading). The class given is physicochemical. Particulars: 70 kJ/m^2. Here is the method:
as §1, §2, §3, §4, §5, §6, §7
X : 20% or more in the percentage fading

The mark [5] stands for this setting: Table B2, dyes of Table B1, 50° C.
Where [6] appears, read: Table C2, dyes of Table C1, 50° C.
The mark [7] stands for this setting: Table A2, dyes of Table A1, 50° C.

Structures are written as SMILES.

In the case of `CCN(CC)c1ccc(N=C2C=C(NC(C)=O)C(=O)C(Cl)=C2C)c(C)c1` [Comp. Ex. D1], the stability of ink result in data set [1] is listed as “large amount of crystal”. Besides, the Light fastness result in data set [2] is recorded as “.largecircle. (less than 20% in the percentage fading)”. The mutagenicity entry in data set [3] is “positive”.

`CCN(CC)c1ccc(N=C2C=C(NC(=O)C3CCCCC3)C(=O)C(Cl)=C2C)c(C)c1` [Comp. Ex. D2]: the stability of ink result in data set [1] is reported as “small amount of crystal”. Moreover, the Light fastness entry in data set [2] is reported as “.largecircle. (less than 20% in the percentage fading)”. For the same compound, the mutagenicity entry in data set [3] was “negative”. For `CCN(CC)c1ccc(N=C2C=C(NC(=O)C3=CCC=CC3)C(=O)C=C2NC(C)=O)c(C)c1` [Dye No. 20 in Table B1], the Light fastness entry in data set [4] (setting [5]) is on record as “.largecircle. (less than 20% in the percentage fading)”. As for `CCN(CC)c1ccc(N=C2C=C(NC(=O)C3CC4C=C(C)C3C4)C(=O)C=C2NC(C)=O)c(C)c1` (stereo not shown) [Dye No. 20 in Table C1], the Light fastness entry in data set [4] (setting [6]) is “.largecircle. (less than 20% in the percentage fading)”. For the compound `CCN(CCO)c1ccc(N=C2C=C(NC(=O)C3=CCC=CC3)C(=O)C(Cl)=C2C)c(C)c1` [Dye No. 21 in Table B1], the Light fastness entry in data set [4] (setting [5]) is listed as “.largecircle. (less than 20% in the percentage fading)”. `CCN(CC)c1ccc(N=C2C=C(NC(=O)C3CC4C=CC3O4)C(=O)C(Cl)=C2C)c(C)c1` (stereo not shown) [Dye No. 21 in Table C1]: the Light fastness entry in data set [4] (setting [6]) is reported as “.largecircle. (less than 20% in the percentage fading)”. With `CCOc1cc(N(CC)CC)ccc1N=C1C=C(NC(=O)C2CC=CCC2)C(=O)C(Cl)=C1C` (stereo not shown) [Dye No. 22 in Table B1], the Light fastness result in data set [4] (setting [5]) is reported as “.largecircle. (less than 20% in the percentage fading)”. In the case of `CCN(CC)c1ccc(N=C2C=C(NC(=O)C3CC4C=CC3S4)C(=O)C(Cl)=C2C)c(C)c1` (stereo not shown) [Dye No. 22 in Table C1], in data set [4] (setting [6]), the Light fastness entry is recorded as “.largecircle. (less than 20% in the percentage fading)”.

As for `CCN(CC)c1ccc(N=C2C=C(NC(=O)C3CC4C=CC3S4)C(=O)C=C2NC(C)=O)c(C)c1` (stereo not shown) [Dye No. 23 in Table C1], the Light fastness result in data set [4] (setting [6]) is “.largecircle. (less than 20% in the percentage fading)”. Regarding `CCN(CC)c1ccc(N=C2C=C(NC(=O)C3CC4C=CC3N4C)C(=O)C(Cl)=C2C)c(C)c1` (stereo not shown) [Dye No. 24 in Table C1], the Light fastness result in data set [4] (setting [6]) is “.largecircle. (less than 20% in the percentage fading)”. On to `CCN(CC)c1ccc(N=C2C=C(NC(=O)C3CC3)C(=O)C(Cl)=C2C)c(C)c1` [compound 1], for which the Light fastness result in data set [4] (setting [7]) was “.largecircle. (less than 20% in the percentage fading)”. The same measure, in the same setting: the entry for `CCN(CCO)c1ccc(N=C2C=C(NC(=O)C3CC3)C(=O)C(Cl)=C2C)c(C)c1` [compound 2] is “.largecircle. (less than 20% in the percentage fading)”; for `CCN(CC)c1ccc(N=C2C=C(NC(=O)C3CC3)C(=O)C=C2NC(C)=O)c(C)c1` [compound 3] it is “.largecircle. (less than 20% in the percentage fading)”.

As for `CCOc1cc(N(CC)CC)ccc1N=C1C=CC(=O)C(NC(=O)C2CC2)=C1` [compound 4], in data set [4] (setting [7]), the Light fastness result is recorded as “.largecircle. (less than 20% in the percentage fading)”. `CCOc1cc(N(CC)Cc2ccccc2)ccc1N=C1C=C(NC(=O)C2CC2)C(=O)C=C1NC(C)=O` [compound 5]: the Light fastness result in data set [4] (setting [7]) is listed as “.largecircle. (less than 20% in the percentage fading)”. As for `CCN(CCNS(C)(=O)=O)c1ccc(N=C2C=C(NC(=O)C3CC3)C(=O)C=C2NC(C)=O)c(C)c1` [compound 6], in data set [4] (setting [7]), the Light fastness entry was “.largecircle. (less than 20% in the percentage fading)”. On the same count and under the same terms, to `CCN(CCC#N)c1ccc(N=C2C=C(NC(=O)C3CC3)C(=O)C=C2NS(C)(=O)=O)c(NC(C)=O)c1` [compound 7] belongs “.largecircle. (less than 20% in the percentage fading)”. Same read-out and setting: to `CCN(c1ccccc1)c1ccc(N=C2C=C(NC(=O)C3CC3)C(=O)C(Cl)=C2C)c(Cl)c1` [compound 8] belongs “.largecircle. (less than 20% in the percentage fading)”; to `CCN(CC)c1ccc(N=C2C=CC(=O)C(NC(=O)C3CC3)=C2)c(NC(C)=O)c1` [compound 9], “.largecircle. (less than 20% in the percentage fading)”; to `CCN(CCO)c1ccc(N=C2C=C(NC(=O)C3CC3)C(=O)C=C2NC(C)=O)c(NS(C)(=O)=O)c1` [compound 10], “.largecircle. (less than 20% in the percentage fading)”. As for `CCN(CC)c1ccc(N=C2C=C(NC(=O)C3CC3)C(=O)C(Cl)=C2C)cc1` [compound 11], the Light fastness result in data set [4] (setting [7]) is reported as “.largecircle. (less than 20% in the percentage fading)”. The same measure, in the same setting: the entry for `CCCCC1CC(C(=O)NC2=CC(=Nc3ccc(N(CC)CC)cc3C)C(C)=C(Cl)C2=O)C1` (stereo not shown) [compound 12] is “.largecircle. (less than 20% in the percentage fading)”; for `CCN(Cc1ccccc1)c1ccc(N=C2C=C(NC(=O)C3CCCC3)C(=O)C=C2NC(C)=O)c(C)c1` [compound 13] it is “.largecircle. (less than 20% in the percentage fading)”.

In the case of `CCN(CC)c1ccc(N=C2C=C(NC(=O)C3CCCC3)C(=O)C(Cl)=C2C)c(NC(C)=O)c1` [compound 14], the Light fastness result in data set [4] (setting [7]) is on record as “.largecircle. (less than 20% in the percentage fading)”. With `CCN(CC)c1ccc(N=C2C=C(NC(=O)C3CCCC3)C(=O)C(Cl)=C2C)c(C)c1` [compound 15], in data set [4] (setting [7]), the Light fastness result is “.largecircle. (less than 20% in the percentage fading)”. On to `CCN(CC)c1ccc(N=C2C=C(NC(=O)C3CCCC3)C(=O)C(Cl)=C2C)cc1` [compound 17], for which the Light fastness entry in data set [4] (setting [7]) is recorded as “.largecircle. (less than 20% in the percentage fading)”.

For the compound `CCN(CCCl)c1ccc(N=C2C=C(NC(=O)C3CCCC3)C(=O)C=C2NC(C)=O)c(NC(=O)NC)c1` [compound 18], the Light fastness result in data set [4] (setting [7]) is “.largecircle. (less than 20% in the percentage fading)”.

For `CCN(CC)c1ccc(N=C2C=C(NC(=O)c3ccsc3)C(=O)C(Cl)=C2C)c(C)c1` [compound 19], in data set [4] (setting [7]), the Light fastness entry is “.largecircle. (less than 20% in the percentage fading)”. Same read-out and setting: to `CCN(CC)c1ccc(N=C2C=C(NC(=O)c3ccsc3)C(=O)C(Cl)=C2C)c(NC(C)=O)c1` [compound 20] belongs “.largecircle. (less than 20% in the percentage fading)”; to `CCN(CC)c1ccc(N=C2C=C(NC(=O)c3ccsc3)C(=O)C=C2NC(C)=O)c(C)c1` [compound 21], “.largecircle. (less than 20% in the percentage fading)”; to `CCN(CCOC)c1ccc(N=C2C=C(NC(=O)c3ccsc3)C(=O)C(Cl)=C2C)c(NC(C)=O)c1` [compound 22], “.largecircle. (less than 20% in the percentage fading)”. For `CCN(CC)c1ccc(N=C2C=CC(=O)C(NC(=O)C3CC=CCC3)=C2)c(C)c1` (stereo not shown) [compound 23], the Light fastness result in data set [4] (setting [5]) is given as “.largecircle. (less than 20% in the percentage fading)”. For the compound `CCN(CCNS(C)(=O)=O)c1ccc(N=C2C=C(NC(=O)C3CC=CCC3)C(=O)C(Cl)=C2C)c(C)c1` (stereo not shown) [compound 24], in data set [4] (setting [5]), the Light fastness entry is listed as “.largecircle. (less than 20% in the percentage fading)”.
